According to BindingDB's records for doi:10.7270/Q2959G44 (Burnham Center For Chemical Genomics, 2012):

These compounds were tested against Dual specificity protein phosphatase 3 (Homo sapiens, UniProt P51452) (assay: VHR phosphatase inhibition, dose response, selectivity assay for STEP inhibitor project, biochemical (AID 602374)).
Chain of Dual specificity protein phosphatase 3 (P51452 whole entry): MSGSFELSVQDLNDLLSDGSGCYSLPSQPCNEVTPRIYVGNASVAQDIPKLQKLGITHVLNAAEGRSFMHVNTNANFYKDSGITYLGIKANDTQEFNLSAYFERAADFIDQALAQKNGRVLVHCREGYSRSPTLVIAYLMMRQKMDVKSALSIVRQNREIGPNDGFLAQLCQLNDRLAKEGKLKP

Compound | IC50
S=C1N=C(C23CC4CC(CC(C4)C2)C3)CC(c2ccc3c(c2)OCO3)N1 (stereo not given) | 3520 nM
CCOc1cc(CN=Nc2nc(O)c(CC(=O)O)s2)ccc1OCc1ccc(Cl)cc1Cl [2-[2-[(N''E)-N''-[4-(2,4-dichlorobenzyl)oxy-3-ethoxy-benzylidene]hydrazino]-4-keto-2-thiazolin-5-yl]acetic acid] | 2420 nM
C=c1c(O)c(O)c(=C2C(=O)C(=O)C(C)C(=O)C2=O)c(O)c1O (stereo not given) [(3E)-5-hydroxy-6-methyl-3-(2,3,5-trihydroxy-4-methyl-6-oxo-1-cyclohexa-2,4-dienylidene)cyclohex-5-ene-1,2,4-trione] | 1270 nM
O=C1C(=O)N(CCCO)C(c2ccc(Br)cc2)C1C(=O)c1ccc(Br)cc1 (stereo not given) [(4E)-5-(4-bromophenyl)-4-[(4-bromophenyl)-oxidanyl-methylidene]-1-(3-oxidanylpropyl)pyrrolidine-2,3-dione] | 73400 nM
CCN(CC)P(=O)(NC(=O)C(Cl)(Cl)Cl)N(CC)CC [MLS000564159] | 3250 nM
COc1ccc(CN=Nc2nc(O)c(CC(=O)O)s2)cc1OCc1ccc(Cl)cc1Cl [[2-({3-[(2,4-dichlorobenzyl)oxy]-4-methoxybenzylidene}hydrazono)-4-oxo-1,3-thiazolidin-5-yl]acetic acid] | 4790 nM

More lines, now with the values ahead:

IC50 | Compound
1230 nM | S=C1N=C2C(=C3SCCS3)CCCC2C(c2ccccc2)N1 (stereo not given) [MLS000516376]
1270 nM | CSc1ccc(CN=Nc2ccc(S(=O)(=O)Nc3ccccc3C(=O)O)cc2[N+](=O)[O-])cc1 [MLS002245633]
3130 nM | O=C(N/N=C/C1C=CC=CC1=O)c1cccc([N+](=O)[O-])c1 (stereo not given) [MLS002667988]
833 nM | COc1ccc(OC)c(-n2c(O)c3o[nH]c(-c4ccccc4Cl)c-3c2=O)c1 [SMR000046218]
